Read-outs that look alike come from different tables or passages of the source.

For one series, the target named is KRAS G12V (Homo sapiens, UniProt P01116, G12V). In words: GDP-GTP exchange assay (bodipy-GDP/GppNHp, SOS1), KRAS G12V. Type of series: biochemical.
Another series deals with KRAS G12D (Homo sapiens, UniProt P01116, G12D). The series can be described thus: GDP-GTP exchange assay (bodipy-GDP/GppNHp, SOS1), KRAS G12D. Type of series: biochemical.
Another series relates to Caco-2 cells. In words: Caco2 assay (Papp A-B). It counts as in vitro ADME. The note with it: test compound 50 μM, 120 min, 37° C. Here is the method:
Caco-2 cells are grown at 37° C. in an atmosphere of 5% CO2 in DMEM growth medium supplemented with 10% (v/v) fetal bovine serum, 1% (v/v) nonessential amino acids, penicillin (100 U/mL), and streptomycin (100 μg/mL). Confluent cell monolayers are subcultured every 7 days or 4 days for Caco-2 by treatment with 0.05% trypsin containing […]. Caco-2 cells are seeded in 96-well Transwell plates. The seeding density for Caco-2 cells is 14,000 cells/well. DMEM growth medium is replaced every other day after seeding. Cell monolayers are used for transport assays between 22 and 25 days for Caco-2 cells.
Cell culture medium is removed and replaced with HBSS. To measure the TEER, the HBSS is added into the donor compartment (apical side) and receiver compartment (basolateral side). The TEER is measured by using a REMS Autosampler to ensure the integrity of the cell monolayers. Caco-2 cell monolayers with TEER values 300 Ω·cm^2 are used for transport experiments. To determine the Papp in the absorptive direction (A-B), solution of test compound (50 μM) in HBSS is added to the donor compartment (apical side), while HBSS solution with 4% BSA is added to the receiver compartment (basolateral side). The apical volume was 0.075 mL, and the basolateral volume is 0.25 mL. The incubation period is 120 min. at 37° C. in an atmosphere of 5% CO2. At the end of the incubation period, samples from the donor and receiver sides are removed and an equal volume of MeCN is added for protein precipitation. The supernatants are collected after centrifugation (3000 rpm, Allegra X-14R Centrifuge from Beckman Coulter, Indianapolis, IN) for LCMS analysis. The permeability value is determined according to the equation:
[formula] • where the flux rate (F, mass/time) is calculated from the slope of cumulative amounts of compound of interest on the receiver side, SA is the surface area of the cell membrane, VD is the donor volume, and MD is the initial amount of the solution in the donor chamber.
The symbol “+” indicates a Caco-2 value of ≤0.5, “++” indicates a Caco-2 value of >0.5 but ≤1; and “+++” indicates a Caco-2 value of >1. “NA” indicates IC50 not available.

[1] abbreviates: Table H, column G12V, for compounds isolated as several atropisomers/diastereoisomers the value for the most potent isomer is quoted, read-out: KRAS G12V exchange assay IC50.
The mark [2] stands for this setting: Table H, column G12D, for compounds isolated as several atropisomers/diastereoisomers the value for the most potent isomer is quoted, read-out: KRAS G12D exchange assay IC50.

Chain of KRAS G12V (P01116 1-188 isoform P01116-2 G12V): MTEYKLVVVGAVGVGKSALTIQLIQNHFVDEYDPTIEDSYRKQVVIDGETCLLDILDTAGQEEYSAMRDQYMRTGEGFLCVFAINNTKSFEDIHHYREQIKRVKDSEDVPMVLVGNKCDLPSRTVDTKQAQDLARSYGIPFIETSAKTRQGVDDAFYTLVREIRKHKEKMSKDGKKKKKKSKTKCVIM
Chain of KRAS G12D (P01116 1-188 isoform P01116-2 G12D): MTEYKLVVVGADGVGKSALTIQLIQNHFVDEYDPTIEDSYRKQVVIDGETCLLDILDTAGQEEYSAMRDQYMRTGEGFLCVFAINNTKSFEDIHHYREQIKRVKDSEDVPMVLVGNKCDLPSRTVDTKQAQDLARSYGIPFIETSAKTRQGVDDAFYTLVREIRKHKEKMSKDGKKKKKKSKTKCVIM

On to `Cc1nc2c(F)c(-c3cccc(Cl)c3Cl)c(CCC#N)cc2c2c1cc([C@H]1C[C@H](Oc3ccccn3)CN1C(=O)C1CC1)n2[C@H]1[C@H]2CN[C@@H]1C2` [Example 5, 3-(1-((1R,4R,5S)-2-Azabicyclo[2.1.1]hexan-5-yl)-2-((2R,4S)-1-(cyclopropanecarbonyl)-4-(pyridin-2-yloxy)pyrrolidin-2-yl)-7-(2,3-dichlorophenyl)-6-fluoro-4-methyl-1H-pyrrolo[3,2-c]quinolin-8-yl)propanenitrile], for which the IC50 at KRAS G12V (setting [1]) and on KRAS G12D (setting [2]) was no more than 100 nM in each case. For the same molecule, the Caco-2 result with Caco-2 cells was “+++ (a Caco-2 value of >1)”.
On to `CCc1c(-c2ccccc2)nnn1[C@H]1C[C@H](c2cc3c(C)nc4c(F)c(-c5cccc(Cl)c5Cl)c(CCC#N)cc4c3n2[C@H]2[C@H]3CN[C@@H]2C3)N(C(=O)C2CC2)C1` [Example 70, 3-(1-((1R,4R,5S)-2-Azabicyclo[2.1.1]hexan-5-yl)-2-((2R,4S)-1-(cyclopropanecarbonyl)-4-(5-ethyl-4-phenyl-1H-1,2,3-triazol-1-yl)pyrrolidin-2-yl)-7-(2,3-dichlorophenyl)-6-fluoro-4-methyl-1H-pyrrolo[3,2-c]quinolin-8-yl)propanenitrile], for which the IC50 on KRAS G12V (setting [1]) and at KRAS G12D (setting [2]) was no more than 100 nM throughout. The Caco-2 result with Caco-2 cells is given as “+ (a Caco-2 value of ≤0.5)”.
`Cc1nc2c(F)c(-c3cccc(Cl)c3Cl)c(CCC#N)cc2c2c1cc([C@H]1C[C@H](n3cc(F)cn3)CN1C(=O)C1CC1)n2[C@H]1[C@H]2CN[C@@H]1C2` [Example 72, 3-(1-((1R,4R,5S)-2-Azabicyclo[2.1.1]hexan-5-yl)-2-((2R,4S)-1-(cyclopropanecarbonyl)-4-(4-fluoro-1H-pyrazol-1-yl)pyrrolidin-2-yl)-7-(2,3-dichlorophenyl)-6-fluoro-4-methyl-1H-pyrrolo[3,2-c]quinolin-8-yl)propanenitrile]: the IC50 at KRAS G12V (setting [1]) and at KRAS G12D (setting [2]) was no more than 100 nM throughout. Besides, the Caco-2 result with Caco-2 cells is listed as “++ (a Caco-2 value of >0.5 but ≤1)”.
`Cc1nc2c(F)c(-c3cccc(Cl)c3Cl)c(CCC#N)cc2c2c1cc([C@H]1C[C@H](OC(C)c3ccon3)CN1C(=O)C1CC1)n2[C@H]1[C@H]2CN[C@@H]1C2` (stereo partly drawn) [Example 32]: the IC50 on KRAS G12V (setting [1]) and on KRAS G12D (setting [2]) was no more than 100 nM in each case. In addition, in the series on Caco-2 cells, the Caco-2 result is given as “+ (a Caco-2 value of ≤0.5)”.
For the molecule `C[C@@H](O)c1nc2c(F)c(-c3cccc(Cl)c3Cl)c(CCC#N)cc2c2c1cc([C@H]1C[C@H](Oc3cc(C4CC4)on3)CN1C(=O)C1CC1)n2[C@H]1[C@H]2CN[C@@H]1C2` [Example 77, 3-(1-((1R,4R,5S)-2-Azabicyclo[2.1.1]hexan-5-yl)-2-((2R,4S)-1-(cyclopropanecarbonyl)-4-((5-cyclopropylisoxazol-3-yl)oxy)pyrrolidin-2-yl)-7-(2,3-dichlorophenyl)-6-fluoro-4-((R)-1-hydroxyethyl)-1H-pyrrolo[3,2-c]quinolin-8-yl)propanenitrile], the IC50 on KRAS G12V (setting [1]) and at KRAS G12D (setting [2]) was no more than 100 nM throughout. The Caco-2 entry with Caco-2 cells is “+ (a Caco-2 value of ≤0.5)”.
As to `CC(O)c1nc2c(F)c(-c3cccc(Cl)c3Cl)c(CCC#N)cc2c2c1cc([C@H]1C[C@H](OCc3ccc(F)cc3C#N)CN1C(=O)C1(C)CC1)n2[C@H]1[C@H]2CN[C@@H]1C2` (stereo partly drawn) [Example 35, 2-((((3S,5R)-5-(1-((1R,4R,5S)-2-Azabicyclo[2.1.1]hexan-5-yl)-8-(2-cyanoethyl)-7-(2,3-dichlorophenyl)-6-fluoro-4-(1-hydroxyethyl)-1H-pyrrolo[3,2-c]quinolin-2-yl)-1-(1-methylcyclopropane-1-carbonyl)pyrrolidin-3-yl)oxy)methyl)-5-fluorobenzonitrile], the IC50 on KRAS G12V (setting [1]) and at KRAS G12D (setting [2]) was no more than 100 nM each time. The Caco-2 entry with Caco-2 cells is “++ (a Caco-2 value of >0.5 but ≤1)”.
For `CC(O)c1nc2c(F)c(-c3cccc(Cl)c3Cl)c(CCC#N)cc2c2c1cc([C@H]1C[C@H](OCc3c(F)cccc3F)CN1C(=O)C1CC1)n2[C@H]1[C@H]2CN[C@@H]1C2` (stereo partly drawn) [Example 34], the IC50 at KRAS G12V (setting [1]) and at KRAS G12D (setting [2]) was no more than 100 nM each time. Further, the Caco-2 result with Caco-2 cells is recorded as “+ (a Caco-2 value of ≤0.5)”.
As for `CC[C@@H]1[C@@H](Oc2cc(OC)ncc2F)C[C@H](c2cc3c([C@@H](C)O)nc4c(F)c(-c5cccc(Cl)c5Cl)c(CCC#N)cc4c3n2[C@H]2[C@H]3CN[C@@H]2C3)N1C(=O)C1CC1` [Example 82, 3-(1-((1R,4R,5S)-2-Azabicyclo[2.1.1]hexan-5-yl)-2-((2R,4S,5R)-1-(cyclopropanecarbonyl)-5-ethyl-4-((5-fluoro-2-methoxypyridin-4-yl)oxy)pyrrolidin-2-yl)-7-(2,3-dichlorophenyl)-6-fluoro-4-((R)-1-hydroxyethyl)-1H-pyrrolo[3,2-c]quinolin-8-yl)propanenitrile], the IC50 on KRAS G12V (KRAS G12V mutant, value for the most potent isomer quoted for certain compounds, read-out: G12V (KRAS G12V exchange assay IC50)) was no more than 100 nM; at KRAS G12D (bodipy-loaded KRAS G12D 2.5 nM, 4 h pre-incubation, value for the most potent isomer quoted for certain compounds, read-out: G12D (KRAS G12D exchange assay IC50)), no more than 100 nM. The Caco-2 entry with Caco-2 cells is “+++ (a Caco-2 value of >1)”.
For the molecule `Cc1nc2c(F)c(-c3cccc(Cl)c3Cl)c(CCC#N)cc2c2c1cc([C@H]1C[C@H](OCc3cnsn3)CN1C(=O)C1CC1)n2[C@H]1[C@H]2CN[C@@H]1C2` [Example 13], the IC50 at KRAS G12V (setting [1]) and on KRAS G12D (setting [2]) was no more than 100 nM each time. In the series with Caco-2 cells, the Caco-2 result is recorded as “+ (a Caco-2 value of ≤0.5)”.
With `COc1nccc(O[C@H]2C[C@H](c3cc4c(C)nc5c(F)c(-c6cccc(Cl)c6Cl)c(CCC#N)cc5c4n3[C@H]3[C@H]4CN[C@@H]3C4)N(C(=O)C3CC3)C2)n1` [Example 42, 3-(1-((1R,4R,5S)-2-Azabicyclo[2.1.1]hexan-5-yl)-2-((2R,4S)-1-(cyclopropanecarbonyl)-4-((2-methoxypyrimidin-4-yl)oxy)pyrrolidin-2-yl)-7-(2,3-dichlorophenyl)-6-fluoro-4-methyl-1H-pyrrolo[3,2-c]quinolin-8-yl)propanenitrile], the IC50 at KRAS G12V (setting [1]) and at KRAS G12D (setting [2]) was no more than 100 nM throughout. Moreover, in the series with Caco-2 cells, the Caco-2 result is reported as “+ (a Caco-2 value of ≤0.5)”.
As to `COc1cc(O[C@H]2C[C@H](c3cc4c([C@@H](C)O)nc5c(F)c(-c6cccc(Cl)c6Cl)c(CCC#N)cc5c4n3[C@H]3[C@H]4CN[C@@H]3C4)N(C(=O)C3CC3)[C@@H]2C)c(F)cn1` [Example 51, 3-(1-((1R,4R,5S)-2-Azabicyclo[2.1.1]hexan-5-yl)-2-((2R,4S,5R)-1-(cyclopropanecarbonyl)-4-((5-fluoro-2-methoxypyridin-4-yl)oxy)-5-methylpyrrolidin-2-yl)-7-(2,3-dichlorophenyl)-6-fluoro-4-((R)-1-hydroxyethyl)-1H-pyrrolo[3,2-c]quinolin-8-yl)propanenitrile], the IC50 at KRAS G12V (setting [1]) and on KRAS G12D (setting [2]) was no more than 100 nM throughout. The Caco-2 result with Caco-2 cells is recorded as “+ (a Caco-2 value of ≤0.5)”.
Turning to `Cc1nc2c(F)c(-c3cccc(Cl)c3Cl)c(CCC#N)cc2c2c1cc([C@H]1C[C@H](OCc3ccccc3F)CN1C(=O)C1CC1)n2[C@H]1[C@H]2CN[C@@H]1C2` [Example 20], the IC50 at KRAS G12V (setting [1]) and at KRAS G12D (setting [2]) was no more than 100 nM throughout. Also, in the series on Caco-2 cells, the Caco-2 result is on record as “+ (a Caco-2 value of ≤0.5)”.
For the molecule `Cc1ccccc1CO[C@H]1C[C@H](c2cc3c(C)nc4c(F)c(-c5cccc(Cl)c5Cl)c(CCC#N)cc4c3n2[C@H]2[C@H]3CN[C@@H]2C3)N(C(=O)C2CC2)C1` [Example 21], the IC50 on KRAS G12V (setting [1]) and at KRAS G12D (setting [2]) was no more than 100 nM throughout. The Caco-2 result in the series with Caco-2 cells is “+ (a Caco-2 value of ≤0.5)”.
Consider `Cc1nc2c(F)c(-c3cccc(Cl)c3Cl)c(CCC#N)cc2c2c1cc([C@H]1C[C@H](OCc3ccc(F)cc3C#N)CN1C(=O)C1CC1)n2[C@H]1[C@H]2CN[C@@H]1C2` [Example 17], for which the IC50 at KRAS G12V (setting [1]) and on KRAS G12D (setting [2]) was no more than 100 nM in each case. Further, in the series with Caco-2 cells, the Caco-2 result is “+ (a Caco-2 value of ≤0.5)”.
Consider `Cc1cc(CO[C@H]2C[C@H](c3cc4c(C)nc5c(F)c(-c6cccc(Cl)c6Cl)c(CCC#N)cc5c4n3[C@H]3[C@H]4CN[C@@H]3C4)N(C(=O)C3CC3)C2)no1` [Example 7], for which the 50% inhibitory concentration (IC50) at KRAS G12V (setting [1]) and on KRAS G12D (setting [2]) was no more than 100 nM each time. The Caco-2 entry with Caco-2 cells is reported as “++ (a Caco-2 value of >0.5 but ≤1)”.
Turning to `COc1cccc(F)c1CO[C@H]1C[C@H](c2cc3c(C)nc4c(F)c(-c5cccc(Cl)c5Cl)c(CCC#N)cc4c3n2[C@H]2[C@H]3CN[C@@H]2C3)N(C(=O)C2CC2)C1` [Example 16], the IC50 at KRAS G12V (setting [1]) and at KRAS G12D (setting [2]) was no more than 100 nM each time. The Caco-2 result in the series with Caco-2 cells is recorded as “++ (a Caco-2 value of >0.5 but ≤1)”.

Broadly, the IC50 is the concentration that inhibits the measured activity by half.
